Calls of active or inactive are those of the source.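 The calls were made as follows: active = compounds giving half or more protection of infected cells from virus-caused growth loss, again on retest; inactive = the rest.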
Tested on: CEM cells HIV-1 protection, formazan growth assay
Experiment: NCI AIDS Antiviral Assay
Conditions: for IC50: measured here: growth of uninfected CEM cells
Outline: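 Category rules: moderately active means at least 50% protection on retest, and confirmed active means 100% protection reproducibly. The underlying data came from a formazan growth assay in HIV-1-infected CEM cells.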

Cc1ccc(-n2cnc(C(=N)C#N)c2N)cc1
EC50: > 200 µM
IC50: 123 µM

Cc1cn(C2CCC(=O)C2)c(=O)[nH]c1=O (stereo not drawn)
outcome: inactive

C/C(=C\Cc1ccc(F)cc1)CCCCCC/C(C)=C/Cc1ccc(F)cc1
EC50: > 200 µM
IC50: 22.4 µM

C/C(=N/OC(=O)N(C)C)c1ccc(Cl)cc1Cl
EC50: > 200 µM
IC50: 105 µM

COC(=O)c1ccc(Nc2nc3nc[nH]c3c(=O)[nH]2)cc1
EC50: > 200 µM
IC50: 42.7 µM

C=C(C)C(=O)O[C@H]1C[C@@]23O[C@@H]2CCC(=C[C@H]2OC(=O)C(=C)[C@H]12)COC3O (stereo partly drawn)
EC50: > 195 µM
IC50: 38 µM

O=c1[nH]c(=O)c2[nH]c(Cl)nc2[nH]1
EC50: > 28.2 µM
IC50: > 28.2 µM

O=C(Nc1ccc([N+](=O)[O-])cc1[N+](=O)[O-])C(=O)C(C(=O)c1ccc2ccccc2c1)C1OC(=O)c2ccccc21 (stereo not drawn)
EC50: > 66.1 µM
IC50: 19.5 µM

O=[N+]([O-])c1ccc(OCn2ncc3ccc([N+](=O)[O-])cc32)cc1
EC50: > 200 µM
IC50: > 200 µM

Cc1ccc(S(=O)(=O)OC2CCN(C)CC2)cc1
EC50: > 200 µM
IC50: > 200 µM

CCN(CC)c1ccc(N=Nc2ccc(-c3nc4cccnc4s3)cc2)cc1
EC50: > 5.13 µM
IC50: > 5.13 µM

COC(Cc1ccccc1)NC(=O)[C@@]12CCCC[C@@H]1C=Cc1ccccc12 (stereo partly drawn)
EC50: > 55 µM
IC50: 22.9 µM

NC(=O)N/N=C/C(/C=N/NC(N)=O)[N+](=O)[O-]
EC50: > 112 µM
IC50: > 112 µM

Ic1ccc(SSc2ccc(I)cc2)cc1
EC50: > 200 µM
IC50: 6.61 µM

CC(=O)N(CCc1ccccc1)C(C#N)c1ccccc1 (stereo not drawn)
EC50: > 200 µM
IC50: > 200 µM

O=C(CCC1CCCCN1)Nc1ccc2c(c1)C(=O)c1ccc(NC(=O)CCN3CCCCC3)cc1C2=O (stereo not drawn)
outcome: inactive

O=C1C/C(Br)=C\c2ccccc2-c2ccccc21
EC50: > 1.12 µM
IC50: 0.389 µM

CSc1ccc(Cc2cc(C(C)(C)C)cc(C(C)(C)C)c2O)cc1
outcome: inactive

COC(=O)NC1(NC(=O)OC)NC(=O)c2cc(OC)c(OC)cc2N1
EC50: > 200 µM
IC50: 12.9 µM

Cc1cccc(/C=C2\CCCc3ccccc3C2=O)c1
EC50: > 200 µM
IC50: 11.2 µM

O=C(CCCC[n+]1ccccc1)Sc1ccccc1C(=O)Nc1ccc(S(=O)(=O)NC(=O)c2ccccc2)cc1
EC50: 18.2 µM
IC50: 61.7 µM

CC(=O)c1c(O)ccc2c1CC(CC=O)O2 (stereo not drawn)
EC50: > 589 µM
IC50: 22.9 µM

O=C1CCC2(c3ccccc3)Nc3ccc(Cl)cc3N12 (stereo not drawn)
outcome: inactive

c1ccc2c(c1)n1c(N3CCCC3)[n+]3ccccc3c1c1c3cccc[n+]3c(N3CCCC3)n21
EC50: 57.5 µM
IC50: > 100 µM

COC(=O)C1=C2Nc3ccccc3C23CCN2C(=O)C[C@H](C1)[C@@H]23 (stereo partly drawn)
outcome: inactive

O=C(CC(O)(C(F)(F)F)C(F)(F)F)C(CCCl)C(O)(C(F)(F)F)C(F)(F)F (stereo not drawn)
EC50: > 200 µM
IC50: 33.1 µM

C[S+](C)c1ccccc1
EC50: > 1050 µM
IC50: 457 µM

CCCOC(=O)C(C)(C)C(OP(=O)(OCCC)OCCC)=C(C)C
EC50: > 200 µM
IC50: 105 µM

CON(C)C(=O)C(C)NC(=O)OC(C)(C)C (stereo not drawn)
EC50: > 155 µM
IC50: > 155 µM

CCOC(=O)CCC(NC(=O)OCc1ccccc1)C(=O)NC(CCC(=O)OCC)C(=O)NC(CCC(=O)OCC)C(=O)NC(CCC(=O)OCC)C(=O)NC(CCC(=O)OCC)C(=O)NC(CCC(=O)OCC)C(=O)NC(CCC(=O)OCC)C(=O)NC(CCC(=O)OCC)C(=O)NC(CCC(=O)OCC)C(=O)NC(CCC(=O)OCC)C(=O)NC(CCC(=O)OCC)C(=O)NC(CCC(=O)OCC)C(=O)OCC (stereo not drawn)
outcome: inactive

COC(=O)[C@@H]1CN(C(=O)c2ccccc2)C(=O)N1
EC50: > 200 µM
IC50: > 200 µM

Cc1n[nH]c(=O)n1C1CC1
EC50: > 200 µM
IC50: > 200 µM

CC(C)/C(Cl)=N\OC(=O)Nc1ccc(S(N)(=O)=O)cc1
EC50: > 200 µM
IC50: 9.77 µM

OCC1C(CO)C2CCC1C2(c1ccccc1)c1ccccc1 (stereo not drawn)
EC50: > 95.5 µM
IC50: 60.3 µM

O=C(/C=C/c1ccc(O)c([N+](=O)[O-])c1)CC(=O)/C=C/c1ccc(O)c([N+](=O)[O-])c1
EC50: > 200 µM
IC50: 25.7 µM

CCNC(=O)Cc1nc2c(N)ncnc2n1C1OC(CO)C(O)C1O (stereo not drawn)
EC50: > 200 µM
IC50: 81.3 µM

CC(=O)OC1COC(n2c(=S)n(-c3ccccc3)c(=O)c3cc(Br)ccc32)C(OC(C)=O)C1OC(C)=O (stereo not drawn)
EC50: > 17 µM
IC50: > 17 µM

O=C1C(C(O)(C(F)(F)F)C(F)(F)F)CCC1C(O)(C(F)(F)F)C(F)(F)F (stereo not drawn)
outcome: inactive

Cn1c(=O)nc2n(CCO)c(-c3ccccc3)c(-c3ccccc3)nc-2c1=O
EC50: > 200 µM
IC50: > 200 µM

Clc1ccc(C(c2ccc(Cl)cc2)c2cncnc2)cc1
outcome: inactive

Cc1cn([C@H]2C[C@@H]3[C@@H](COC(CCCC[Se]c4ccccc4)N3O)O2)c(=O)[nH]c1=O (stereo partly drawn)
EC50: 14.8 µM
IC50: 105 µM

CC1(C)[C@H](C(=O)O)N2C(=O)[C@@H](NS(=O)(=O)c3ccc([N+](=O)[O-])cc3)[C@H]2S1(=O)=O
EC50: > 200 µM
IC50: 195 µM

COc1ccc2c(OC)c3ccoc3nc2c1O
EC50: > 50.1 µM
IC50: 32.4 µM

O=C(CC(=O)c1cccc([N+](=O)[O-])c1)C(=O)Nc1nc([N+](=O)[O-])cs1
EC50: > 20 µM
IC50: > 20 µM

S=c1sc2c(n1-c1ccccc1)NC=NC2S (stereo not drawn)
EC50: > 468 µM
IC50: 22.9 µM

Cc1ccc(S(=O)(=O)C2CC3CC2C2COCC32)cc1 (stereo not drawn)
EC50: > 75.9 µM
IC50: > 75.9 µM

COc1ccc(S(=O)(=O)n2c3c(c4ccccc42)[C@@H]2[C@@H](CCCN2C(=O)CS(=O)c2ccc(C)cc2)[C@H](Cl)C3)cc1 (stereo partly drawn)
EC50: > 200 µM
IC50: > 200 µM

NNC(=O)CC(=O)Nc1ccc(S(=O)(=O)c2ccc(NC(=O)CC(=O)NN)cc2)cc1
EC50: > 200 µM
IC50: > 200 µM

O=C1C(=Cc2ccc(Cl)cc2)C(=O)c2ccccc21
EC50: > 17.4 µM
IC50: > 17.4 µM

COc1cc(-c2ccc(N=Nc3cc(S(=O)(=O)O)c4ccccc4c3O)c(OC)c2)ccc1N=Nc1cc(S(=O)(=O)O)c2ccccc2c1O
EC50: 135 µM
IC50: 141 µM

COc1cc(Cl)c2c3c(c(C(=O)c4ccccc4)oc13)CCC2
outcome: inactive

Cc1nc2ccccc2c2nnc(SCC(=O)N(Cc3ccccc3)c3ccccc3)n12
EC50: > 200 µM
IC50: > 200 µM

Cc1cccc2c(NCCN(C)C)c3cccc(C(=O)NCCN(C)C)c3nc12
EC50: > 0.2 µM
IC50: 0.195 µM

NC(N)=C1CN(C2CCCCC2)C(=O)NC1=O
EC50: > 1050 µM
IC50: 794 µM

COc1ccc(OC)c(NC(=O)C(=O)C(C(C)=O)c2nc3ccc(Cl)cc3[nH]c2=O)c1 (stereo not drawn)
EC50: > 81.3 µM
IC50: > 81.3 µM

CN1C(NN)=NS(=O)(=O)c2ccccc21
EC50: > 115 µM
IC50: 95.5 µM

CC1=CC(=O)/C(=C/n2c(=S)[nH]c3cc(C)ccc32)C(=O)O1
EC50: > 200 µM
IC50: 195 µM

CN=S(=O)(c1ccccc1)c1ccccc1
EC50: 56.2 µM
IC50: > 200 µM

O=C(Cc1ccccc1)NCCc1ccc(O)c(O)c1
EC50: > 200 µM
IC50: 27.5 µM

O=C(c1ccccc1)C(O)(c1ccccc1)C(c1ccccc1)c1ccccc1 (stereo not drawn)
EC50: > 26.3 µM
IC50: > 26.3 µM

CCN(CC)c1ccc(N=Nc2ccc(-c3nc4cccn(C)c-4n3)cc2)cc1
EC50: > 7.41 µM
IC50: > 7.41 µM

N#C/C(=C/Sc1ccccc1)C(=O)O
outcome: inactive

CC1(C)CC(=O)/C(=C/C2CCNC2=S)C(=O)N1 (stereo not drawn)
EC50: > 501 µM
IC50: > 501 µM

Nc1nc(N)c(CCCCc2ccccc2)c(/C=C/c2ccc([N+](=O)[O-])cc2)n1
outcome: inactive

CCCCCC(O)C1C(=O)OC(C)C(O)/C=C/C=C/C=C/C=C\C=C(\C)C(O)CC(O)CC(O)CC(O)CC(O)CC(O)CC1O (stereo not drawn)
EC50: > 200 µM
IC50: > 200 µM

c1cnc2c(c1)-n1cccc1C1(CCCCC1)NN2
EC50: > 200 µM
IC50: > 200 µM

CCOc1cccc2cccnc12
EC50: > 200 µM
IC50: > 200 µM

COC12C=CC(CC1)C1=C2C(=O)c2nc(C)c(C)nc2C1=O (stereo not drawn)
EC50: > 63.1 µM
IC50: 39.8 µM

O=c1oc2cc(O)ccc2c(O)c1C(c1ccc(/C=C/c2ccccc2)cc1)c1c(O)c2ccc(O)cc2oc1=O
EC50: > 200 µM
IC50: 74.1 µM

CC(C)(C)OC(=O)/N=C/c1c(O)c2ccccc2oc1=O
EC50: > 200 µM
IC50: 30.2 µM

CN1S(=O)(=O)N(C)P12(N=P(CP(=NP13(N(C)S(=O)(=O)N1C)N(C)S(=O)(=O)N3C)(c1ccccc1)c1ccccc1)(c1ccccc1)c1ccccc1)N(C)S(=O)(=O)N2C
EC50: > 70.8 µM
IC50: > 70.8 µM

Cn1c(=O)n(CC2CS2)c2ccccc21 (stereo not drawn)
EC50: > 1120 µM
IC50: 24.5 µM

O=P(O)(O)C=C=C1CCCCC1
EC50: > 200 µM
IC50: > 200 µM

CN(C)C(=S)N/N=C\C=N/NC(=S)N(C)C
EC50: > 0.2 µM
IC50: 0.117 µM

CCOC(=O)C(=CCC1NCCc2c1[nH]c1ccccc21)C(=O)OCC (stereo not drawn)
EC50: > 20.4 µM
IC50: 12 µM

COC(=O)C1CC2(CCC1=O)Cc1ccccc1C2=O (stereo not drawn)
EC50: > 200 µM
IC50: 72.4 µM

COCOc1cc(OCOC)cc(C(=O)Oc2ccccc2)c1
EC50: > 200 µM
IC50: > 200 µM

CCC(C)c1cccc(C)c1NC(=O)C(=O)Cc1nc2ccccc2s1 (stereo not drawn)
EC50: > 186 µM
IC50: > 186 µM

CC(C)=CCC[C@@H](C)C1=C(O)C(Nc2ccccc2I)=C(C)C(=O)C1=O
EC50: > 200 µM
IC50: 6.76 µM

NC1CCC(N(CC(=O)O)CC(=O)O)C(N(CC(=O)O)CC(=O)O)C1 (stereo not drawn)
EC50: > 200 µM
IC50: 112 µM

C/C(=N\NC(=S)Nc1ccc(C(=O)O)cc1)c1ccccn1
EC50: > 110 µM
IC50: 18.2 µM

COC(=O)C1SC[C@H]2C(=O)N(c3ccccc3)C(=O)N12 (stereo partly drawn)
EC50: > 200 µM
IC50: > 200 µM

Cn1nc(Br)c(=O)n(C(c2ccccc2)c2ccccc2)c1=O
EC50: > 69.2 µM
IC50: 22.9 µM

O=C1C2CC=C3CCS(=O)C3C2C(=O)N1c1ccccc1 (stereo not drawn)
EC50: > 417 µM
IC50: > 417 µM

CCOC(=O)/C(C#N)=C/c1ccnc2ccccc12
EC50: > 200 µM
IC50: 3.8 µM

O=S1(=O)CC2C3C=CC(O3)C21 (stereo not drawn)
EC50: > 1450 µM
IC50: > 1450 µM

N=C(N)N1CCC(N2CCOCC2)CC1
EC50: > 200 µM
IC50: > 200 µM
